Results from patent US11708283B2, “Metal-chelating compositions and their use in methods of removing or inhibiting barium scale” (CORNELL UNIVERSITY, priority 2018, dated 2023).

Experiments:
[1] = Protonation constants of the ligands by pH-potentiometric titration; assay type: physicochemical; details: for occurrence of the fully deprotonated ligand in solution: ligand speciation versus pH; for log Ka1 / log Ka2 / log Ka3 / log Ka4: pH-potentiometry, 25° C., I = 0.1M KCl
Method: Potentiometric measurements were carried out using a titrator equipped with a combination electrode and an exchange unit with an automatic burette (10 mL). The titration vessel was fitted with a removable glass cell (˜70 mL) and was thermostated at 25° C. using a circulating water bath. CO2 was excluded from the vessel prior to and during the titrations using a small positive pressure of Ar that was passed through a solution of 30 wt % KOH. Carbonate-free KOH (˜0.1 M) was prepared by dissolving KOH pellets (semiconductor grade, 99.99% trace metals basis) in freshly boiled water (≥18 MΩ-cm) and was standardized by potentiometric titration against potassium hydrogen phthalate. Hydrochloric acid (0.1 M) was standardized against freshly prepared KOH. Titration solutions were maintained at a constant ionic strength of 0.1 M using KCl (≥99.5%) and were equilibrated for 15 minutes prior to the addition of titrant. Before every titration, the electrode was calibrated in terms of hydrogen ion concentration by titrating a solution of standardized HCl (5 mM) containing supporting electrolyte (95 mM) with standardized KOH (2 mL). Data within the pH ranges of 2.5-3.2 and 10.8-11.2 were analyzed using software to obtain the standard electrode potential (E0) and slope factor. Owing to the sharp rise in pH at the titration endpoint (pH 3.2-10.8), data obtained in this region are subject to significant error and were therefore excluded from the calibration analysis. A pKw value of 13.78 was taken from the literature (Baes, C. F.; Mesmer, R. E. The Hydrolysis of Cations; Wiley: New York, 1976).
Stock solutions of macropa and macropaquin were prepared in H2O. […] The exact ligand concentrations were determined from the potentiometric titration curves with KOH. Protonation equilibria of macropa^2− and macropaquin^2− were determined by adding standardized KOH to a solution (20 mL) containing ligand (˜0.02 mmol), 0.1 M HCl (0.1 mmol), and 1 M KCl (1.9 mmol). The titration method employed a 0.1 mV/min drift limit with a maximum wait time of 90 sec between addition of base and measurement. At least 70 data points were collected over the pH range of 2.5-10.5 (macropa) or 2.5-11.3 (macropaquin). The protonation constants, defined in Eq. 1, were calculated from the average of at least 4 independent titrations using the appropriate software.
Both ligand (L) and proton concentrations were admitted as refineable parameters. The errors given for the protonation constants correspond to one standard deviation. The protonation constants measured for macropa^2− were consistent with those previously reported (Roca-Sabio et al., 2009, supra); log Ka5 was not able to be determined under the conditions employed here. Protonation equilibria of macroquin-SO3^4− were determined by titrating standardized HCl (˜5.19 mL) into a solution (62.5 mL) containing ligand (˜0.013 mmol, 10.4 mg), KOH (0.25 mmol), and 1 M KCl (6 mmol). The same titration method was employed as described above for the other two ligands. At least 90 data points over the pH range of 4.0-10.8 were included in the refinement; no additional protonation constants could be refined when data from pH 2.5-3.99 were included. The protonation constants were calculated from the average of 15 independent titrations.

[2] = Thermodynamic stability constants of Ba^2+ complexes by pH-potentiometry; assay type: binding; details: for pBa (−log [M^2+]free): [M^2+] = 10^−6M, [L] = 10^−5M; for pBa (−log [M^2+]free) / log KBaH2L / log KBaHL / log KBaL / major species present at pH 7.4 in the presence of Ba^2+: 25° C.; for pBa (−log [M^2+]free) / log K′Ba (conditional stability constant) / log KBaH2L / log KBaHL / log KBaL: I = 0.1M KCl; for log K′Ba (conditional stability constant): pH 7.4, 25° C., calculated from protonation and stability constants; for log KBaH2L / log KBaHL / log KBaL: pH-potentiometry; for major species present at pH 7.4 in the presence of Ba^2+: speciation, [Ba^2+]tot=[L]tot=1.0 mM, I=0.1 M KCl
Method: Potentiometric measurements were carried out using a titrator equipped with a combination electrode and an exchange unit with an automatic burette (10 mL). The titration vessel was fitted with a removable glass cell (˜70 mL) and was thermostated at 25° C. using a circulating water bath. CO2 was excluded from the vessel prior to and during the titrations using a small positive pressure of Ar that was passed through a solution of 30 wt % KOH. […] Hydrochloric acid (0.1 M) was standardized against freshly prepared KOH. […] Before every titration, the electrode was calibrated in terms of hydrogen ion concentration by titrating a solution of standardized HCl (5 mM) containing supporting electrolyte (95 mM) with standardized KOH (2 mL).
ICP standards of calcium, strontium, and barium in dilute HNO3 were employed in the titrations. […] Stability constants were measured for the alkaline earth complexes of macropa^2− and macropaquin^2− by adding standardized KOH to a solution (20 mL) containing ligand (0.02 mmol), metal (0.02 mmol), 1 M KCl (1.9 mmol), and a portion of 0.1 M HCl sufficient to bring the total acid content (HCl+HNO3) to 0.1 mmol. The titration method employed either a 0.1 mV/min or 0.2 mV/min drift limit with a maximum wait time of 300 seconds between addition of base and measurement. […] These pH ranges reflect the portion of the titration curves in which metal binding is occurring. Using the protonation constants measured for each ligand, the stability constants (Equations 2-4, below) were calculated from the average of at least 3 independent titrations using appropriate software. Proton concentration was admitted as a refineable parameter. […] The errors given for the stability constants correspond to one standard deviation.
The alkaline earth stability constants for macroquin-SO3^4− were determined using a system in which each ligand titration was paired with a ligand-metal titration. These pairwise titrations permitted the ligand concentration for the metal-ligand titrations to be known with reasonable certainty from the refinement of the ligand-only titrations. […] The same titration method was employed as described above for macropa^2− and macropaquin^2−. […] Stability constants were calculated as described above.
Log conditional constants (log K′) of the alkaline earth complexes at pH 7.4 were calculated using the experimentally determined protonation and stability constants. These constants are expressed by the following equation:
In the above equation, [(ML)′]=[ML]+[MHL]+[MH2L], and [HnL]=[L], [HL], [H2L] . . . [HnL].

overall basicity of the ligand, sum of log Ka values [1] | occurrence of the fully deprotonated ligand in solution [1] | log Ka1 [1] | log Ka2 [1] | log Ka3 [1] | log Ka4 [1] | log KBaH2L [2] | log KBaHL [2] | log KBaL [2] | major species present at pH 7.4 in the presence of Ba^2+ [2] | SMILES | pBa (−log [M^2+]free) ([2]; pH 7.4) | log K′Ba (conditional stability constant) [2] | also measured
32.14 | do not exist in solution below pH 8 | 9.34 | 9.43 | 6.75 | 6.62 | 7.80(2) | 9.24(7) | 10.44 | MH2L | O=S(=O)(O)c1ccc(O)c2nc(CN3CCOCCOCCN(Cc4ccc5c(S(=O)(=O)O)ccc(O)c5n4)CCOCCOCC3)ccc12 [macroquin-SO3, 2,2′-((1,4,10,13-tetraoxa-7,16-diazacyclooctadecane-7,16-diyl)bis(methylene))bis(8-hydroxyquinoline-5-sulfonic acid)] | 9.72 | 8.76 | fraction of ligand present as H2L^2− ([1]; pH 7.4): 78%; log Ka1 ([1]; listed as macroquin-SO3^4−): 9.34(4); log Ka2 ([1]; listed as macroquin-SO3^4−): 9.43(1); log Ka3 ([1]; listed as macroquin-SO3^4−): 6.75(4); log Ka4 ([1]; listed as macroquin-SO3^4−): 6.62(4)
– | – | – | – | – | – | – | – | – | – | O=C(O)CN1CCN(CC(=O)O)CCN(CC(=O)O)CCN(CC(=O)O)CC1 [DOTA, reference compound] | 6.76 | 5.72 | –
27.69 | do not exist in solution below pH 8 | 10.33 | 7.15 | 6.97 | 3.24(4) | 3.28(2) | 9.76(2) | 10.87 | MHL | O=C(O)c1cccc(CN2CCOCCOCCN(Cc3ccc4cccc(O)c4n3)CCOCCOCC2)n1 [macropaquin, 6-((16-((8-hydroxyquinolin-2-yl)methyl)-1,4,10,13-tetraoxa-7,16-diazacyclooctadecan-7-yl)methyl)picolinic acid] | 11.01 | 10.05 | fraction of ligand as monoprotonated species HL^− ([1]; pH 7.4): 56%; log Ka1 ([1]; listed as macropaquin^2−): 10.33(4); log Ka2 ([1]; listed as macropaquin^2−): 7.15(3); log Ka3 ([1]; listed as macropaquin^2−): 6.97(2)

SMILES | overall basicity of the ligand, sum of log Ka values [1] | occurrence of the fully deprotonated ligand in solution [1] | log Ka1 [1] | log Ka2 [1] | log Ka3 [1] | log Ka4 [1] | log KBaH2L [2] | log KBaHL [2] | log KBaL [2] | major species present at pH 7.4 in the presence of Ba^2+ [2] | pBa (−log [M^2+]free) ([2]; pH 7.4) | log K′Ba (conditional stability constant) [2] | also measured
O=C(O)c1cccc(CN2CCOCCOCCN(Cc3cccc(C(=O)O)n3)CCOCCOCC2)n1 [macropa, 6,6-((1,4,10,13-tetraoxa-7,16-diazacyclooctadecane-7,16-diyl)bis(methylene))dipicolinic acid] | 19.99 | – | 7.41 | 6.899 | 3.23(1) | 2.45(5) | 2.49(7) | 3.76(2) | 11.11 | – | 11.69 | 10.74 | fraction of ligand fully deprotonated (L^2−) ([1]; pH 7.4): 43%; log Ka1 ([1]; listed as macropa^2−): 7.41(1); log Ka2 ([1]; listed as macropa^2−): 6.899(3); log KBaL lower than that for DOTA by [2]: 0.64 log units; Ba^2+ bound by ligand ([2]; pH 4.0, speciation): 90%; Ba^2+ complexed by ligand ([2]; pH 5.1, speciation): 99%; log K′Ba greater than those for DOTA and DTPA by ([2]; pH 7.4): 5-6 orders of magnitude; selectivity for Ba^2+ over Ca^2+ (ratio of pM values) ([2]; pH 7.4): 1.79 fold; selectivity for Ba^2+ over Sr^2+ (ratio of pM values) ([2]; pH 7.4): 1.17 fold
